Values of other authors, collected in article PMC10289985, “Brigatinib pharmacokinetics in patients with chronic hepatic impairment” (Investigational New Drugs, 2023).
Where two headings read alike, the source gives them in different places.

Legend:
[1] = design: method as in PMID 30052269; details: cited from earlier work
[2] = design: method as in ref 26 = [26]; 26. Zykadia [package insert] (2021) Novartis Pharmaceuticals Corporation, East Hanover, NJ; details: cited from earlier work
[3] = design: method as in PMID 29468455; details: patients with moderate or severe hepatic impairment; cited from earlier work

## CCc1cc2c(cc1N1CCC(N3CCOCC3)CC1)C(C)(C)c1[nH]c3cc(C#N)ccc3c1C2=O [alectinib]
[1]; moderate hepatic impairment vs matched healthy participants
  increase of combined systemic exposures (AUC) of alectinib and its M4 metabolite: 36%
[1]; severe hepatic impairment vs matched healthy participants
  increase of combined systemic exposures (AUC) of alectinib and its M4 metabolite: 76%

## Cc1cc(Nc2ncc(Cl)c(Nc3ccccc3S(=O)(=O)C(C)C)n2)c(OC(C)C)cc1C1CCNCC1 [ceritinib]
[2]; mild and moderate hepatic impairment
  systemic exposures compared with healthy participants: similar
[2]; severe hepatic impairment
  increase of unbound systemic exposure (AUC): 108%

## C[C@@H](Oc1cc(-c2cnn(C3CCNCC3)c2)cnc1N)c1c(Cl)ccc(F)c1Cl [crizotinib]
[3]
  change of concentrations in hepatic impairment: increased
